# Reference: ChEMBL document CHEMBL4673275, “Synthesis and biological activity of (±)-7,3',4'-trihydroxyhomoisoflavan and its analogs” (Bioorg Med Chem Lett, 2021)
# Activity calls are given as the source filed them. The calls are words filed in the database; no cut-off is given here.
# How the values were obtained:
# [1] = target: Acetylcholinesterase (Homo sapiens) (UniProt P22303); assay: Inhibition of AChE (unknown origin) at 1 to 25 uM; settings: dose 1-25 µM
# PC-12 [2] = assay: Induction of neurite outgrowth in rat PC-12 cells assessed as cell elongation at 30 uM incubated for 48 hrs in presence of NGF; format: functional, cell-based
# PC-12 [3] = assay: Induction of neurite outgrowth in rat PC-12 cells at 1 to 30 uM incubated for 48 hrs; format: functional, cell-based; settings: dose 1-30 µM
# PC-12 [4] = assay: Induction of neurite outgrowth in rat PC-12 cells at 1 to 30 uM incubated for 48 hrs in presence of NGF; format: functional, cell-based; settings: dose 1-30 µM
# Acetylcholinesterase (Homo sapiens), sequence (P22303 whole entry): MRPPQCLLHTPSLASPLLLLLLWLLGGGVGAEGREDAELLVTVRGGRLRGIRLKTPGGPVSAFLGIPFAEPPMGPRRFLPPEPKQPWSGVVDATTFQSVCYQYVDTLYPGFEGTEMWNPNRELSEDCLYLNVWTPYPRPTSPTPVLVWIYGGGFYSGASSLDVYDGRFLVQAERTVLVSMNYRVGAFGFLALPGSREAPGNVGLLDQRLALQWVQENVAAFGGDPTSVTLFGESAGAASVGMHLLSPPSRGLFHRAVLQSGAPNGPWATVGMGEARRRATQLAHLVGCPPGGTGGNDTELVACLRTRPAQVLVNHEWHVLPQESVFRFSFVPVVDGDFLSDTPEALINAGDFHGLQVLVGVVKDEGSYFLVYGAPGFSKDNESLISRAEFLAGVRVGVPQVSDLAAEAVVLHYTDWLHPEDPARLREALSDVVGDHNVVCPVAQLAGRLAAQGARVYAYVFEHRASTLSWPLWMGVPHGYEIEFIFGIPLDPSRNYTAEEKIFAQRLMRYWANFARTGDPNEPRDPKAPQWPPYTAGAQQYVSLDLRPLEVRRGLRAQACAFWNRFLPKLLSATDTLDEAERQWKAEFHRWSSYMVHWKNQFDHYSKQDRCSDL
Compound,inhibition [1],Activity (PC-12 [2]),Activity (PC-12 [3]),Activity (PC-12 [4])
CN(C)C(=O)Oc1cccc([N+](C)(C)C)c1,Active,,,
Oc1ccc(CC2COc3ccccc3C2)cc1O (stereo not drawn),Active,Active,inactive,Active
Oc1ccc2c(c1)OCC(Cc1ccc(O)c(O)c1)C2 (racemic),Active,Active,inactive,Active
O=C(O)/C=C/c1ccc(O)c(O)c1,Active,,,
Oc1ccc(CC2COc3ccccc3C2)cc1 (stereo not drawn),inactive,Active,inactive,Active
O=c1c(Cc2ccc(O)c(O)c2)coc2ccccc12,Active,Active,inactive,Active
